Assay results published in patent USRE50642E1, “Anti-androgens for the treatment of non-metastatic castrate-resistant prostate cancer” (Aragon Pharmaceuticals, Inc., priority 2012, dated 2025).

Tests used:
[1] = test system: non-castrate hormone-sensitive and bicalutamide-resistant human prostate cancer xenograft models; conditions: non-castrate hormone-sensitive and bicalutamide-resistant xenografts; Clegg et al. Cancer Res 2012; cited from earlier work
[2] = test system: male humans with non-metastatic castration-resistant prostate cancer; assay: Phase II clinical trial in non-metastatic castration-resistant prostate cancer, PSA decline from baseline; assay type: in vivo, human; conditions: 240 mg orally, continuous daily dosing schedule
T877A AR mutant = biological target: T1, T877A AR mutant (Homo sapiens, UniProt P10275, T878A); conditions: cited from earlier work
T1 sequence (P10275 1-920 T878A): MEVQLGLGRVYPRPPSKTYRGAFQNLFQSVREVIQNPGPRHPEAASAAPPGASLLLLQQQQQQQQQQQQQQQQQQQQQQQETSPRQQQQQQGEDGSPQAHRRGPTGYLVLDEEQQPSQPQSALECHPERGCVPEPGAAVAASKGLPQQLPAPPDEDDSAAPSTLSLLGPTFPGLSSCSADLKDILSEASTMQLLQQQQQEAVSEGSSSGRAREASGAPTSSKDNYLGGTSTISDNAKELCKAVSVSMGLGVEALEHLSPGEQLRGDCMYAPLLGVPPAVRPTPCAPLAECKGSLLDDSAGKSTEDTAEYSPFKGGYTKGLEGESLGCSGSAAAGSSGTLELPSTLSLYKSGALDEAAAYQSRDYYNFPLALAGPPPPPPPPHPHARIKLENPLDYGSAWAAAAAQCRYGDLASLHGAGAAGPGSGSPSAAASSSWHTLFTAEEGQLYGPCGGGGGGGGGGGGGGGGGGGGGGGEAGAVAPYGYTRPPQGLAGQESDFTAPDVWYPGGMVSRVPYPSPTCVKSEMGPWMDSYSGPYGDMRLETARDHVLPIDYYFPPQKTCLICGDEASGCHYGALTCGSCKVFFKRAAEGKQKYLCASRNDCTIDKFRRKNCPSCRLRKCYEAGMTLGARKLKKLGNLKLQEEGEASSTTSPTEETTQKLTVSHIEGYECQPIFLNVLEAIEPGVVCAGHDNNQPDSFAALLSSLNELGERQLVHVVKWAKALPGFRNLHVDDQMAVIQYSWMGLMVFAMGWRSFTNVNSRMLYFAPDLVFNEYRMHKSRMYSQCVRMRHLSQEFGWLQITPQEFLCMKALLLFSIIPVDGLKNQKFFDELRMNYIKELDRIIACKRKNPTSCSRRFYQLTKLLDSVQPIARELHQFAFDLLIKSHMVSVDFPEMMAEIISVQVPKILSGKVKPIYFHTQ

CNC(=O)c1ccc(N2C(=S)N(c3cnc(C#N)c(C(F)(F)F)c3)C(=O)C23CCC3)cc1F [4-[7-(6-cyano-5-trifluoromethylpyridin-3-yl)-8-oxo-6-thioxo-5,7-diazaspiro[3.4]oct-5-yl]-2-fluoro-N-methylbenzamide]
tumor regression [1]: partial or complete tumor regression | PSA50 (≥50% decline in PSA from baseline), share of males ([2]; at 3 months): 91% | PSA90 (≥90% decline in PSA from baseline), share of males ([2]; at 3 months): 38% | PSA50 (≥50% decline in PSA from baseline), share of males ([2]; at 6 months): 91% | PSA90 (≥90% decline in PSA from baseline), share of males ([2]; at 6 months): 55%

CC(C)(O)C(=O)Nc1ccc([N+](=O)[O-])c(C(F)(F)F)c1 [hydroxyflutamide]
activity in T877A AR mutant (T877A AR mutant): act as AR agonists
